Patent US4063025A, “4-Substituted amino-α-aminomethylbenzyl alcohol derivatives” (Yamanouchi Pharmaceutical Co., Ltd., priority 1975, dated 1977)
Structures can show the parent of a compound that is named as a salt. Where two headings read alike, the source gives them in different places.

What was measured:
guinea pig = experiment: Anti asthmatic activity: protection from histamine-induced asthmatic dyspnea, subcutaneous (Parker et al.); type: in vivo; conditions: Cavia porcellus, sc, 0.5 h, read-out: anti-asthmatic activity ED50
Protocol: The experiments were carried out according to the method of Parker et al., (J. Pharmacol. Exptl. Therap., 118, 359-364 (1956)). A guinea pig was placed in a 11 liters glass chamber and exposed to the spasmogen by means of a nebulizer. […] Samples were administered subcutaneously to animals 30 min. prior the application of the spasmogen.
ED50 was calculated by the method of Litchfield-Wilcoxon (J. Pharmacol. Exptl. Therap., 96, 99-113 (1949) using 4-8 groups and one group consists of 4-8 of guinea pig.

β2 = molecular target: T1, β2 (Canis lupus familiaris, UniProt P54833); experiment: Bronchodilator activity, β2 action: histamine-induced increase in bronchial resistance, intraduodenal (Konzett and Rossler); type: in vivo, Mongorel dogs; conditions: dog, anesthetized dogs, histamine dihydrochloride 10 μg/Kg i.v., peak effect, read-out: β2 action i.d. ED50
T1 construct: from tissue; host or cells: airways of anesthetized mongrel dogs, in vivo
Protocol: a. Bronchodilator activity, B2 action
The experiments were carried out according to the method of Konzett and Rossler (Arch. exp. Path. Pharmakol., 195, 11-14 (1940)). Mongorel dogs were anesthetized with pentobarbital Na. Temporary increase in bronchial resistance, measured with transducer connected to a polygraph, were produced by histamine dihydrochloride, 10 μg/Kg injected rapidly intravenously at intervals of 30 min. The test samples were injected intraduodenally and the time-course of antihistamine activity of the sample (the inhibition rate (%) against the control) was obtained.
ED50 (μg/Kg) values of β-agonists were obtained from the dose response curve drawn according to the peak effect on each dose.

β1 = experiment: Action on heart rate, β1 action, intraduodenal; type: in vivo, Mongorel dogs
Protocol: b. Action on heartrate, β1 action.
Mongorel dogs were anesthetized with pentobarbital Na. Heart rate (HR) was recorded on polygraph. […] The time-course of ΔHR (the increased HR against the control) was obtained.
The dose response curve drawn according to the peak response on each dose and the ED25 beats/min. (μg/Kg), that is the dose of the sample producing 25 beats/min. increase in heart rate was obtained from the curve.

β1 /β2 = experiment: Broncho-selectivity (ratio of β1/β2); type: in vivo, Mongorel dogs; conditions: intraduodenal, anesthetized dogs; from ED25 heart rate and ED50 bronchodilator
Description: The broncho-selectivity was obtained by the following equation. [formula]

[1] = cited from earlier work
[2] = subcutaneous, 30 min. prior to spasmogen (0.1% histamine dihydrochloride spray), guinea pig

T1 sequence (P54833 whole entry): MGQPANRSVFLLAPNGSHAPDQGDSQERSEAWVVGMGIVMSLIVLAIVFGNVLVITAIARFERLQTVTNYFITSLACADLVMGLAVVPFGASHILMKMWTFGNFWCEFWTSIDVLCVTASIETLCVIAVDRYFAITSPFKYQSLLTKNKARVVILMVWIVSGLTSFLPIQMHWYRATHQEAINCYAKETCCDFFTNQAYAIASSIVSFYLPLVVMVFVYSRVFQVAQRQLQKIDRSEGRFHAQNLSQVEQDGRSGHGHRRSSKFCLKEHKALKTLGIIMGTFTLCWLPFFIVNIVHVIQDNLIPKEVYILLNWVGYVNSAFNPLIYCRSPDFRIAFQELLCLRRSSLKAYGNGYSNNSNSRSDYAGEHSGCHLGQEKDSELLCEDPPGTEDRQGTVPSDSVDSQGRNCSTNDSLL

With `CCNc1c(Cl)cc(C(O)CNC(C)(C)C)cc1Cl.Cl` (stereo not drawn) [Ex. 6, 3,5-dichloro-4-ethylamino-α-(tert-butylaminomethyl)-benzyl alcohol mono-hydrochloride] the ED50 (guinea pig) was 0.125 to 0.25 mg/kg.
`COC(=O)Nc1c(Br)cc(C(O)CNC(C)(C)C)cc1Br` (stereo not drawn) [Ex. 8, 3,5-dibromo-4-methoxycarbonylamino-α-(tert-butylaminomethyl)benzyl alcohol] showed an ED50 (guinea pig; [2]) of 0.125 mg/kg.
With `CCOC(=O)Nc1c(Cl)cc(C(O)CNC(C)(C)C)cc1Cl.Cl` (stereo not drawn) [Ex. 10, 3,5-dichloro-4-ethoxycarbonylamino-α-(tert-butylaminomethyl)-benzyl alcohol hydrochloride] the ED50 (β2) was 0.0045 mg/kg, the “β1 action i.d. ED25 beats/min” value (β1; dog, in vivo) was 0.0195 mg/kg and the “broncho-selectivity (Ratio of β1 /β2)” value (β1 /β2) was 4.3.
`CC(C)OC(=O)Nc1c(Cl)cc(C(O)CNC(C)(C)C)cc1Cl` (stereo not drawn) [Ex. 12, 3,5-dichloro-4-isopropoxycarbonylamino-α-(tert-butylaminomethyl)benzyl alcohol] gave an ED50 (guinea pig; [2]) of 0.032 mg/kg.
With `CC(C)(C)NCC(O)c1cc(Cl)c(NC(=O)OCc2ccccc2)c(Cl)c1.Cl` (stereo not drawn) [Ex. 13, 3,5-dichloro-4-benzyloxycarbonylamino-α-(tert-butylaminomethyl)benzyl alcohol hydrochloride] the ED50 (guinea pig; [2]) was 0.125 mg/kg.
In the case of `COCCOC(=O)Nc1c(Cl)cc(C(O)CNC(C)(C)C)cc1Cl` (stereo not drawn) [Ex. 14, 3,5-dichloro-4-(2-methoxyethoxy)carbonylamino-α-(tert-butylaminomethyl)benzyl alcohol hydrochloride], the ED50 (guinea pig; [2]) is reported as 0.032 mg/kg.
With `CNC(=O)Nc1c(Cl)cc(C(O)CNC(C)(C)C)cc1Cl` (stereo not drawn) [Ex. 15, 3,5-dichloro-4-methylcarbamoylamino-α-(tert-butylaminomethyl)benzyl alcohol] the ED50 (guinea pig; [2]) was 0.125 to 0.25 mg/kg.
Work on `COC(=O)Nc1c(Cl)cc(C(O)CNC(C)(C)C)cc1Br` (stereo not drawn) [Ex. 18, 3-bromo-5-chloro-4-methoxycarbonylamino-α-(tert-butylaminomethyl)-benzyl alcohol 1/2 fumarate] yielded an ED50 (guinea pig; [2]) of 0.063 mg/kg.
With `COC(=O)Nc1ccc(C(O)CNC(C)(C)C)cc1Cl` (stereo not drawn) [Ex. 23, 3-chloro-4-methoxycarbonylamino-α-(N-tert-butylaminomethyl)benzyl alcohol] the ED50 (guinea pig; [2]) was 0.063 to 0.125 mg/kg.
In the case of `CC(C)(C)NCC(O)c1cc(Cl)c(N)c(Cl)c1` (stereo not drawn) [NAB 365, 1-(4-amino-3,5-dichlorophenyl)-2-tert-butylamino ethanol, reference compound], the ED50 (guinea pig) is reported as 0.49 mg/kg, the ED50 (β2) is reported as 0.0123 mg/kg and the “β1 action i.d. ED25 beats/min” value (β1; intraduodenal, anesthetized dogs, dose producing 25 beats/min. increase in heart rate) is reported as 0.0057 mg/kg. For the same compound, the “broncho-selectivity (Ratio of β1 /β2)” value (β1 /β2) was 0.46, the “bronchodilator activity by oral administration” value ([1]; in words) was “strong bronchodilator activity” and the “bronchodilator activity, times stronger than Isoproterenol” value ([1]; oral administration, versus Isoproterenol) was “about 500 times”. The “bronchodilator activity, times stronger than Salbutamol” value ([1]; oral administration, versus Salbutamol) was “about 100 times”.
